Results taken from paper PMC7469689, “Substituted 4,5′-Bithiazoles as Catalytic Inhibitors of Human DNA Topoisomerase IIα” (Journal of Chemical Information and Modeling, 2020).

Experiments:
[1] = biological target: T1, human topo IIα (Homo sapiens, UniProt P11388); assay: HTS relaxation assay of human topo IIα; type: biochemical
T1 construct: purchased Inspiralis (Norwich, U.K.)

[2] = biological target: T2, human topo IIβ (Homo sapiens, UniProt Q02880); assay: Human topo IIβ-mediated kDNA decatenation assay; type: biochemical
T2 construct: purchased Inspiralis (Norwich, U.K.)
Procedure: We were also interested in whether compounds can act on both isoforms of the human topo II. Thus, we performed human topo IIβ decatenation assays for compounds 1 and 9. […] (see also Tables S5 and S6 for more details).
We made use of the human topo II decatenation assay kit from Inspiralis (Norwich, U.K.) to assess the ability of selected compounds to impede DNA decatenation.[89],[90] It was performed for topo IIα and topo IIβ isoforms using the protocol as described previously.[35]

[3] = biological target: T1, human topo IIα; assay: Human topoisomerase II competitive ATPase assay; type: biochemical
Procedure: The human topo competitive ATPase assay was executed at Inspiralis (Norwich, U.K.). The compound was analyzed using a kinase/lactate dehydrogenase assay as described above.
A mixture of the assay buffer (20 mM Tris–HCl, 5 mM magnesium acetate, 125 mM potassium acetate, 2 mM DTT, pH 7.9), linear pBR322 (1.5 μL of 1 mg/mL per assay), phosphoenol pyruvate (0.5 μL of 80 mM per assay), pyruvate kinase/lactate dehydrogenase mix (0.75 μL per assay), NADH (1 μL of 20 mM per assay), DMSO (1.5 μL per assay), and water (32.85 μL per assay) was prepared. This mixture (41.1 μL) was put into the wells of a 384-well microtiter plate. DMSO (0.5 μL) or the diluted investigated compound in the DMSO was added to the wells and mixed. Subsequently, 5 μL of the dilution buffer or human topo IIα (12 nM final concentration) was added and mixed. Before the run, a prerun was done where we added 3.4 μL of the appropriate concentration of ATP and monitored the OD340 for up to 35 min. The assay temperature was 37 °C. Two negative controls (4% DMSO and dilution buffer without enzyme) were used in the presence of 2 mM ATP. The ATP concentrations in this assay were 0.025, 0.05, 0.075, 0.1, 0.25, 0.5, 0.75, and 1 mM. The assays were executed in duplicate at 3.9, 31, 50, 75, and 100 μM final concentrations of the investigated compound 1. DMSO has a final concentration of 4% (v/v) in all of the reactions.
8. Human topoisomerase II ATPase assays at different concentration of the ATP – Competitive ATPase assay
The spectrophotometer produces an output as change in OD340 with time (data not shown).
The data from the runs after the addition of the ATP were plotted after adjusting the starting OD340 to zero. Lines are fitted to these by linear regression and the rates (OD change/min) calculated. The rates for each ATP and inhibitor concentration were then calculated as μM ATP hydrolysed/min using an extinction coefficient of 6.22 M-1 cm-1 and a path length of 0.5 cm. The rates were then plotted against the ATP concentration and curves fitted to the data using the hyperbolic equation y=(ax/(b+x) where y = rate, x = [ATP], a = Vmax and b=Km.
Using the equation y=y0+(ax/(b+x)) it was possible to solve it and obtain values. […]
concentrations after subtraction of the background rate and calculated Km (mM ATP) and Vmax (μM ATP/min) values. They were calculated from equation y = (ax /(b+x) where y = rate, x = [ATP], a = Vmax.
Rates for controls without enzyme in the presence of 2 mM ATP (μmol/min) […]
Rates (μmol/min) at different ATP concentrations (mM) after subtraction of background […]
Calculated Km (mM ATP) and Vmax (μM ATP/min) values

[4] = Solubility observations; type: physicochemical; conditions: 500 μM; erratic readings

T1 sequence (P11388 whole entry): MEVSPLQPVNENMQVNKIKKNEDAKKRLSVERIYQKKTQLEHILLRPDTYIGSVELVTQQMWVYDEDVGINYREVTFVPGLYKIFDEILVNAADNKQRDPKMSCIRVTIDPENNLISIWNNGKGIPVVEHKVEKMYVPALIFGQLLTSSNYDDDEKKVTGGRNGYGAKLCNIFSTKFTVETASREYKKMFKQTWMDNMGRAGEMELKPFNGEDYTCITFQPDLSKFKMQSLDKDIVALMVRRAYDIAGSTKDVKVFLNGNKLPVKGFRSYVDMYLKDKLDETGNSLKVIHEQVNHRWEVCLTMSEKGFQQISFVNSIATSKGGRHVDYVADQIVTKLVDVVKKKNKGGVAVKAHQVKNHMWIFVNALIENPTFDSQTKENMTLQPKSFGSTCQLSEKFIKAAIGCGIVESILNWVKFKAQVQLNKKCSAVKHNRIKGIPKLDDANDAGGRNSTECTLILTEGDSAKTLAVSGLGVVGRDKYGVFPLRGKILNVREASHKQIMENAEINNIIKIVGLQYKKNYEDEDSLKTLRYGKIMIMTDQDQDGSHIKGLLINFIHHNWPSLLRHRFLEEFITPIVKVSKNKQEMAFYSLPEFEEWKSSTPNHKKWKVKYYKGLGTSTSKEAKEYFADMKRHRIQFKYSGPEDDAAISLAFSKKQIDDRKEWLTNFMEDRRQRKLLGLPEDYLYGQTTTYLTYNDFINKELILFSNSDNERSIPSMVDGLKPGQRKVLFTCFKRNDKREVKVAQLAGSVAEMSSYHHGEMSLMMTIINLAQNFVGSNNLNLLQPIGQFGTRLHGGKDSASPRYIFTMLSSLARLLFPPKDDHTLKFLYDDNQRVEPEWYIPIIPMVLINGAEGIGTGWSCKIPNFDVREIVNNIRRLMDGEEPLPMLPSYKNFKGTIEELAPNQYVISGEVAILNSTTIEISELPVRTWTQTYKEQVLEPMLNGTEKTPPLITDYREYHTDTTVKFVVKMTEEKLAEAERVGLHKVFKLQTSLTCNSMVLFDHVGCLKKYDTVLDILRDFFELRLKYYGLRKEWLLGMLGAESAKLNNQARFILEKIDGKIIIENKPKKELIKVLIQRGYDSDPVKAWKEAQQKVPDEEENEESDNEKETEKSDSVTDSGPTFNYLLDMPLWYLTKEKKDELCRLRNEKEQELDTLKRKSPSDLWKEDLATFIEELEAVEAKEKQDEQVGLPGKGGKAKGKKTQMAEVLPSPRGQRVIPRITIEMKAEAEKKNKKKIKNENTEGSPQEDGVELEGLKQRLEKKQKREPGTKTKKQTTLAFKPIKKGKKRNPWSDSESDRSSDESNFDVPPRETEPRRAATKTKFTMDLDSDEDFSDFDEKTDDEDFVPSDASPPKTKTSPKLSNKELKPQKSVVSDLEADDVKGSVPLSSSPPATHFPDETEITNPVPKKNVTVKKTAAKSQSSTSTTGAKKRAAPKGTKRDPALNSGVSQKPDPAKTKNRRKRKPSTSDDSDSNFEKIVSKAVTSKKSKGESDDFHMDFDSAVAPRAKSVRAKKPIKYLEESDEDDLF
T2 sequence (Q02880 whole entry): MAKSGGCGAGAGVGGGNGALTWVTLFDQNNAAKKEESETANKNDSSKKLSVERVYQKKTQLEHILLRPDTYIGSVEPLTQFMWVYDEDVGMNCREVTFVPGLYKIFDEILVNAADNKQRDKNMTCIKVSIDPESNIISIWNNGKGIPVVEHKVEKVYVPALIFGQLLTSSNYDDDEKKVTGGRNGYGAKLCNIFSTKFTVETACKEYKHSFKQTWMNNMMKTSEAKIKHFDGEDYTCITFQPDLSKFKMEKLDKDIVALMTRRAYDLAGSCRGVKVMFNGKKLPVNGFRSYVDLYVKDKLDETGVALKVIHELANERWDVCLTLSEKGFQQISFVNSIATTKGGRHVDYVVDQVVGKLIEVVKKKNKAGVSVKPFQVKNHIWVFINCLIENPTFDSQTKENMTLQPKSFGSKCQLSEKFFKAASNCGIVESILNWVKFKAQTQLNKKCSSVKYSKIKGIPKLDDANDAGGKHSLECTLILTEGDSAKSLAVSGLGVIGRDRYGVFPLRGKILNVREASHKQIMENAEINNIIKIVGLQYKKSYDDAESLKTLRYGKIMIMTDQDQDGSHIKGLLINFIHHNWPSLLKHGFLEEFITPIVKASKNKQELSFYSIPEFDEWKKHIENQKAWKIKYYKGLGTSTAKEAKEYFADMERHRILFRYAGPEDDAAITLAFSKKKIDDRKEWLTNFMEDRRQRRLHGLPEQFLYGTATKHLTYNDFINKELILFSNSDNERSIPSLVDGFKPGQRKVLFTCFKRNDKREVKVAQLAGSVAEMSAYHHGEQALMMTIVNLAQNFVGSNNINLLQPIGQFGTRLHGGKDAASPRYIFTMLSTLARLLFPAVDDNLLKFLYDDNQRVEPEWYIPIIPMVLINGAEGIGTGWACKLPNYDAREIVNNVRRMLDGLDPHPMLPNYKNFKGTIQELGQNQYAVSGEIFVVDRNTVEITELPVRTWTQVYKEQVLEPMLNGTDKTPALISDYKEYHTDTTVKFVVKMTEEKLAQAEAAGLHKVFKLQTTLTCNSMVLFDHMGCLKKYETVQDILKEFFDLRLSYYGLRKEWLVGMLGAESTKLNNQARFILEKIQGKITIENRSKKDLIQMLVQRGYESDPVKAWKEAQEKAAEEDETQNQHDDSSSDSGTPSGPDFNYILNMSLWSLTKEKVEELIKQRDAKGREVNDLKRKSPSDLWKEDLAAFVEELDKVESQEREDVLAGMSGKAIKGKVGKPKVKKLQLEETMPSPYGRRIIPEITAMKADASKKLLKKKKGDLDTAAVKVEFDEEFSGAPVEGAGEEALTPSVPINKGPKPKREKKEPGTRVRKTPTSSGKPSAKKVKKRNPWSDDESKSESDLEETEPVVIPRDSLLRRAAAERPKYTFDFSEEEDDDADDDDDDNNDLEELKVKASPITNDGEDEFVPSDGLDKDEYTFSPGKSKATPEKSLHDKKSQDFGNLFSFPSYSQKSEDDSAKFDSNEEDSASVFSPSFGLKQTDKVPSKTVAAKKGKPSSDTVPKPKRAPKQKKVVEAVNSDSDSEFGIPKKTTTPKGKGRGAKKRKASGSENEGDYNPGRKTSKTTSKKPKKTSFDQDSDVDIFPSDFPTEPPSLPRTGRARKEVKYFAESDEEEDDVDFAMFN

In the case of `Cc1nc(N)sc1-c1csc(Nc2ccc(C(F)(F)F)cc2)n1` [Compound 1], the IC50 [1] is reported as 33.4 µM, the inhibition of decatenation ([2]; 125 μM) is reported as “completely inhibited” and the inhibition of decatenation ([2]; 500 μM) is reported as “completely inhibited”. For the same compound, the IC50 ([3]; ATP 0.025 (mM per method), fit R^2 0.474, read-out: IC50 at c(ATP) 0.025) was 0.0038 mM, the IC50 ([3]; ATP 0.05 (mM per method), read-out: IC50 at c(ATP) 0.05) was 0.0088 mM and the IC50 ([3]; ATP 0.075 (mM per method), read-out: IC50 at c(ATP) 0.075) was 0.0148 mM. It also gave an IC50 ([3]; ATP 0.1 (mM per method), read-out: IC50 at c(ATP) 0.1) of 0.0094 mM, an IC50 ([3]; ATP 0.25 (mM per method), read-out: IC50 at c(ATP) 0.25) of 0.0183 mM and an IC50 ([3]; ATP 0.5 (mM per method), read-out: IC50 at c(ATP) 0.5) of 0.0152 mM. For the same compound, the IC50 ([3]; ATP 0.75 (mM per method), read-out: IC50 at c(ATP) 0.75) was 0.0178 mM, the IC50 ([3]; ATP 1 (mM per method), read-out: IC50 at c(ATP) 1) was 0.0216 mM and the IC50 ([3]; ATP 2 (mM per method), read-out: IC50 at c(ATP) 2) was 0.0254 mM. The “Calculated Vmax” value ([3]; compound 3.9 μM) was 2.97 μM ATP/min, the “Rate of ATP hydrolysis after subtraction of background” value (shortened to “Rate of ATP hydrolysis”) ([3]; compound 3.9 μM, ATP 0.025 mM) was 0.064 µmol/min and the “Rate of ATP hydrolysis” value ([3]; compound 3.9 μM, ATP 0.05 mM) was 0.257 µmol/min. For the same compound, the “Rate of ATP hydrolysis” value ([3]; compound 3.9 μM, ATP 0.075 mM) was 0.354 µmol/min, the “Rate of ATP hydrolysis” value ([3]; compound 3.9 μM, ATP 0.1 mM) was 0.450 µmol/min and the “Rate of ATP hydrolysis” value ([3]; compound 3.9 μM, ATP 0.25 mM) was 1.158 µmol/min. For the same compound, the “Rate of ATP hydrolysis” value ([3]; compound 3.9 μM, ATP 0.5 mM) was 1.479 µmol/min, the “Rate of ATP hydrolysis” value ([3]; compound 3.9 μM, ATP 0.75 mM) was 1.801 µmol/min and the “Rate of ATP hydrolysis” value ([3]; compound 3.9 μM, ATP 1 mM) was 1.897 µmol/min. The “Rate of ATP hydrolysis” value ([3]; compound 3.9 μM, ATP 2 mM) was 2.444 µmol/min, the “Calculated Vmax” value ([3]; compound 31 μM) was 1.9 μM ATP/min and the “Rate of ATP hydrolysis” value ([3]; compound 31 μM, ATP 0.05 mM) was 0.032 µmol/min. The “Rate of ATP hydrolysis” value ([3]; compound 31 μM, ATP 0.075 mM) was 0.096 µmol/min, the “Rate of ATP hydrolysis” value ([3]; compound 31 μM, ATP 0.1 mM) was 0.161 µmol/min and the “Rate of ATP hydrolysis” value ([3]; compound 31 μM, ATP 0.25 mM) was 0.450 µmol/min. For the same compound, the “Rate of ATP hydrolysis” value ([3]; compound 31 μM, ATP 0.5 mM) was 0.707 µmol/min, the “Rate of ATP hydrolysis” value ([3]; compound 31 μM, ATP 0.75 mM) was 0.868 µmol/min and the “Rate of ATP hydrolysis” value ([3]; compound 31 μM, ATP 1 mM) was 1.061 µmol/min. The “Rate of ATP hydrolysis” value ([3]; compound 31 μM, ATP 2 mM) was 1.286 µmol/min, the “Calculated Vmax” value ([3]; compound 50 μM) was 2.77 μM ATP/min and the “Rate of ATP hydrolysis” value ([3]; compound 50 μM, ATP 0.025 mM) was 0.000 µmol/min. For the same compound, the “Rate of ATP hydrolysis” value ([3]; compound 50 μM, ATP 0.05 mM) was 0.096 µmol/min, the “Rate of ATP hydrolysis” value ([3]; compound 50 μM, ATP 0.075 mM) was 0.129 µmol/min and the “Rate of ATP hydrolysis” value ([3]; compound 50 μM, ATP 0.1 mM) was 0.032 µmol/min. For the same compound, the “Rate of ATP hydrolysis” value ([3]; compound 50 μM, ATP 0.25 mM) was 0.193 µmol/min, the “Rate of ATP hydrolysis” value ([3]; compound 50 μM, ATP 0.5 mM) was 0.450 µmol/min and the “Rate of ATP hydrolysis” value ([3]; compound 50 μM, ATP 0.75 mM) was 0.707 µmol/min. The “Rate of ATP hydrolysis” value ([3]; compound 50 μM, ATP 1 mM) was 0.772 µmol/min, the “Rate of ATP hydrolysis” value ([3]; compound 50 μM, ATP 2 mM) was 1.222 µmol/min and the “Calculated Vmax” value ([3]; compound 75 μM) was 1.94 μM ATP/min. For the same compound, the “Rate of ATP hydrolysis” value ([3]; compound 75 μM, ATP 0.025 mM) was 0.096 µmol/min, the “Rate of ATP hydrolysis” value ([3]; compound 75 μM, ATP 0.05 mM) was 0.032 µmol/min and the “Rate of ATP hydrolysis” value ([3]; compound 75 μM, ATP 0.1 mM) was 0.064 µmol/min. The “Rate of ATP hydrolysis” value ([3]; compound 75 μM, ATP 0.25 mM) was 0.225 µmol/min, the “Rate of ATP hydrolysis” value ([3]; compound 75 μM, ATP 0.5 mM) was 0.322 µmol/min and the “Rate of ATP hydrolysis” value ([3]; compound 75 μM, ATP 0.75 mM) was 0.386 µmol/min. For the same compound, the “Rate of ATP hydrolysis” value ([3]; compound 75 μM, ATP 1 mM) was 0.354 µmol/min, the “Rate of ATP hydrolysis” value ([3]; compound 75 μM, ATP 2 mM) was 0.740 µmol/min and the “Calculated Vmax” value ([3]; compound 100 μM) was 3.07 μM ATP/min. The “Rate of ATP hydrolysis” value ([3]; compound 100 μM, ATP 0.025 mM) was 0.064 µmol/min, the “Rate of ATP hydrolysis” value ([3]; compound 100 μM, ATP 0.05 mM) was 0.032 µmol/min and the “Rate of ATP hydrolysis” value ([3]; compound 100 μM, ATP 0.075 mM) was 0.000 µmol/min. The “Rate of ATP hydrolysis” value ([3]; compound 100 μM, ATP 0.1 mM) was 0.032 µmol/min, the “Rate of ATP hydrolysis” value ([3]; compound 100 μM, ATP 0.25 mM) was 0.064 µmol/min and the “Rate of ATP hydrolysis” value ([3]; compound 100 μM, ATP 0.5 mM) was 0.418 µmol/min. The “Rate of ATP hydrolysis” value ([3]; compound 100 μM, ATP 0.75 mM) was 0.289 µmol/min, the “Rate of ATP hydrolysis” value ([3]; compound 100 μM, ATP 1 mM) was 0.354 µmol/min and the “Rate of ATP hydrolysis” value ([3]; compound 100 μM, ATP 2 mM) was 0.772 µmol/min. For the same compound, the “solubility in the ATPase assay” value [4] was “solubility problems”.
